# Reference: patent US20250109146A1, “BRIDGED RING-SUBSTITUTED HETEROARYL-PYRAN DERIVATIVE, AND USE THEREOF” (priority 2022, published 2025)
# Counter-ions that a name gives are not always drawn.
# Assays:
# [1] = tested on: p-ERK in KRAS^G12D mutant AGS cells; experiment: Assay of p-ERK inhibition in AGS cells (HTRF); assay type: cell-based; details: Homo sapiens, 3 hours incubation with compound
# Method: • 1) AGS cells were inoculated in a transparent 96-well cell culture plate, and each well contained 80 μL of cell suspension and 10000 cells. […] 80 μL of medium containing 0.02% serum was added to each well. The cell plate was incubated in a carbon dioxide incubator at 37° C. overnight; • 3) 2 μL of the compound was weighed and added to 78 μL of the cell medium. After the mixture was mixed thoroughly, 20 μL of the solution of compound was weighed and added to the corresponding well of the cell plate. […] 50 μL of 1× cell lysate was added to each well. […] The mixture was incubated at room temperature for at least 4 hours; • 7) After completion of the incubation, HTRF was read with multi-label analyzer: excitation: 320 nm, emission: 615 nm, 665 nm; • 8). IC50 of the compound to be assayed was calculated. […]
# • 1) AGS cells were inoculated in a transparent 96-well cell culture plate, and each well contained 80 μL of cell suspension and 10000 cells. […] The mixture was incubated at room temperature for at least 4 hours; • 7) After completion of the incubation, HTRF was read with multi-label analyzer: excitation: 320 nm, emission: 615 nm, 665 nm; • 8). IC50 of the compound to be assayed was calculated.
# [2] = tested on: p-ERK in KRAS^G12D mutant AsPC-1 cells; experiment: Assay of p-ERK inhibition in AsPC-1 cells (HTRF); assay type: cell-based; details: HTRF method, 1 hour incubation with compound
# Method: • 1) ASPC-1 cells were inoculated in a transparent 96-well cell culture plate, and each well contained 80 μL of cell suspension and 8000 cells. The cell plate was inoculated in a carbon dioxide incubator at 37° C. overnight; • 2) After completion of the incubation, the cell supernatant was discarded. […] 2 μL of the compound was weighed and added to 78 μL of a cell starvation medium. After the mixture was mixed thoroughly, 20 μL of the solution of compound was weighed and added to the corresponding well of the cell plate. […] 50 μL of cell lysate was added to each well. […] The mixture was incubated at room temperature for 4 hours; • 7) After completion of the incubation, HTRF was read with multi-label analyzer: excitation: 320 nm, emission: 615 nm, 665 nm.
SMILES,IC50 [1],IC50 [2]
C#Cc1c(F)ccc2cc(N)cc(C3Cc4nc(OC[C@@]56CCCN5C[C@H](F)C6)nc(N5CC6CCC(C5)N6)c4CO3)c12 (stereo partly drawn) [Compound 3 hydrochloride],64.6 nM,
CC#Cc1cc(N)c(F)c([C@@H]2Cc3nc(OC[C@]45C=CCN4CCC5)nc(N4CC5CCC(C4)N5)c3CO2)c1C(F)(F)F [Compound 10 hydrochloride],,1.1 nM
CC#Cc1cc(N)c(F)c([C@H]2Cc3nc(OC[C@]45CCCN4C/C(=C\F)C5)nc(N4CC5CCC(C4)N5)c3CO2)c1C(F)(F)F [Compound 11 formate],,0.9 nM
